One assay has as its system MDA-MB-231. Nature of the assay: MTT cell viability, MDA-MB-231. Type of assay: cell-based, Human. Conditions: Homo sapiens, MDA-MB-231; MTT test; 72 h of treatment (Figure 3); read-out: IC50 Value ± SD, MDA-MB-231. The method, then: (§1) These cell lines were selected to represent distinct sub-types of breast cancer for extensive investigation. […] The medium was added with 10% heat-inactivated fetal calf serum (FCS) to supply vital growth hormones and nutrients necessary for cell proliferation. Additionally, 1% penicillin streptomycin was administered to avoid bacterial contamination, ensuring the sterility and integrity of the cell cultures. The cell cultures were maintained at 37 °C in a humidified environment containing 5% CO2. This controlled environment mimics physiological conditions in the human body, supporting optimal cell development and function. The humidified atmosphere prevents medium evaporation, while the 5% CO2 concentration maintains optimal pH values in the culture medium. These specialized circumstances and methods ensure that the breast cancer cell lines remain healthy and viable for experimental procedures, delivering dependable and reproducible results for research projects. The standard protocols followed for cultivating these cells are crucial for generating consistent and reliable data. Using well-characterized cell lines from a credible source like ATCC ensures the re-liability and comparability of the experimental outcomes.
(§2) This approach determines cell viability based on the ability of living cells to decrease MTT to a purple, water-insoluble formazan product. Cells were planted in 96-well plates at a density of 1 × 10^4 cells per well in 100 μL of complete culture media, which provides all necessary nutrients for cell growth. […] The cells were then treated with the compounds for 24, 48, and 72 h to determine the effect on cell viability over varied time intervals. Following each incubation time, 20 μL of MTT solution (at a concentration of 5 mg/mL in PBS) were applied to each well. The plates were further incubated for 4 h at 37 °C, during which time live cells decrease the MTT to formazan, creating purple crystals. At the end of the incubation, the medium containing the MTT was carefully aspirated, leaving only the formazan crystals in the bottom of the wells. […]
A general note: Tetrazolium assays rely on reduction of a dye to a coloured formazan, in cell work by metabolically active cells.

The next assay concerns MCF-7. In words: MTT cell viability, MCF-7. The settings on record: Homo sapiens, MCF7; MTT test; 72 h of treatment (Figure 3); read-out: IC50 Value ± SD, MCF-7. The format is cell-based, Human. The method, then: as §1, §2

By IC50 is commonly meant the concentration at which inhibition is half-maximal.

≈ marks a conversion by molar mass, not a printed value.

`Cc1ccc(C(C)C)c(O)c1` [Thymol, 2-isopropyl-5-methylphenol]: the IC50 turned out to be 8.22 ± 0.94 µg/mL (≈ 54.7 µM) with MDA-MB-231 and 5.16 ± 0.71 µg/mL (≈ 34.3 µM) with MCF-7.

These data come from paper PMC11355195 (Life, 2024).
